Experiments:
Male NMRI mice [1] = test: Forced swimming test (FST); assay type: in vivo; settings: doses of 5 and 10 mg/kg p.o., may be a false positive from nonspecific stimulatory effect
Description: The aim of this study was to evaluate the antidepressant activity of radiprodil. The forced swimming test is a behavioral assay that can be used to predict antidepressant efficacy of drugs in humans.
(§1) Male NMRI mice weighing 24-26 g were used. The animals were kept in polycarbonate cages in a thermostatically controlled room at 24+2° C. and at a relative humidity (RH) of 50±10%. The room was artificially illuminated from 6 am to 6 pm and the mice were given commercial pellet rat-mouse feed, autoclaved at 105° C. and sterile filtered tap water, ad libitum.
(§2) An aqueous solution of radiprodil, in the form of a complex with heptakis(2,6-di-O-methyl)-β-cyclodextrin(DIMEB), was administered orally at doses of 2.5, 5 and 10 mg/kg (calculated for non-complexed radiprodil). […]
The forced swimming test (FST) was measured in glass cylinders (height: […], diameter 14 cm) containing 12 cm of water, maintained at 23-25° C. […] The duration of immobility was recorded using a stopwatch. […]
In the forced swimming test, the mean±standard error on the mean (s.e.m) immobility time in seconds was measured. […] The mean (±s.e.m) “FST-activity” value was also calculated for each group and submitted to the same data analysis process as the immobility data.
The significance of the drug effect was determined by ANOVA followed by post-hoc Duncan-test. […]

Male NMRI mice [2] = test: Spontaneous locomotor activity; assay type: in vivo; settings: doses of 5 and 10 mg/kg p.o.
Description: as §1, §2
Spontaneous locomotor activity was measured in a four-channel activity monitor manufactured by Farmakotechnika (Hungary). […] The photocell beam, when broken, signaled a count, which was then recorded by a computer.
Each group consisted of 10 animals. […] The horizontal and vertical movements were determined as the number of beam interruptions collected in 15 minute intervals throughout the 1 hour period.
In the spontaneous locomotor activity test, the mean (±s.e.m) value of one hour horizontal activity data (in counts) of each group was calculated.
The significance of the drug effect was determined by ANOVA followed by post-hoc Duncan-test. The percentage change in the horizontal activity, immobility or “FST-activity” variables were calculated for each dose according to the equation; […]

## O=C(Nc1ccc2[nH]c(=O)oc2c1)C(=O)N1CCC(Cc2ccc(F)cc2)CC1 [radiprodil, 2-[4-(4-fluoro-benzyl)-piperidine-1-yl]-2-oxo-N-(2-oxo-2,3-dihydro-benzoxazol-6-yl)acetamide]
Male NMRI mice [1]
  effect in the forced swimming test (in words): significant effects
Male NMRI mice [2]
  effect on spontaneous motor activity (in words): stimulated the spontaneous motor activity

Source: patent publication US20110190348A1, “METHODS FOR TREATING CNS DISORDERS” (priority 2008, published 2011)
